This note sets out measurements from ChEMBL document CHEMBL1821592, “Dual effects of caffeoyl-amino acidyl-hydroxamic acid as an antioxidant and depigmenting agent” (Bioorg Med Chem Lett, 2011).

The test system of series [1] is Radical scavenging activity. In words: Antioxidant activity assessed as DPPH free radical scavenging activity at 1.85 mM after 10 mins relative to control. Type of series: functional. (The DPPH test is a chemical assay of radical scavenging.)
Series [2] concerns the target T1, Tyrosinase (Agaricus bisporus) (UniProt O42713).
T1 sequence (whole entry): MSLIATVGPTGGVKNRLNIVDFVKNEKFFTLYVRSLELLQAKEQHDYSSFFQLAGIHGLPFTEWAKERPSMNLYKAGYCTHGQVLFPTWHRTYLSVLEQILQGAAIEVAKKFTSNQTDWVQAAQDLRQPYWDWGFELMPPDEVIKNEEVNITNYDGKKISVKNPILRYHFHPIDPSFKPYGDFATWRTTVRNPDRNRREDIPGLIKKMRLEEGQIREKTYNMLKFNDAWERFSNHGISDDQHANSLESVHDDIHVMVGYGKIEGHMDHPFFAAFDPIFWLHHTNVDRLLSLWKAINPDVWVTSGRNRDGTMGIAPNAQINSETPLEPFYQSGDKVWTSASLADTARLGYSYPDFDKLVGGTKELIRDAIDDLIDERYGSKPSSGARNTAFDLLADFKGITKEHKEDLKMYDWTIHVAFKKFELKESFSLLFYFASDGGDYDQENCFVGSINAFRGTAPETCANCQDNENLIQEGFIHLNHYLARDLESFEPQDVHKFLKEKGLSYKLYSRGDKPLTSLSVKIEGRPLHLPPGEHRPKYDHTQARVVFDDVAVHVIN
In words: Inhibition of mushroom tyrosinase using L-DOPA as substrate at 50 uM after 10 mins by UV absorbance method.

Series [3] in a line: Antioxidant activity against linoleic acid lipid peroxidation at 90 uM by ferric thiocyanate method. The series is classed as functional.
A short description of series [4]: Cytotoxicity against mouse Mel-Ab cells up to 200 uM after 24 hrs by crystal violet staining based ELISA. Type of series: cell-based. In general terms: An ELISA detects its analyte on a solid surface through an enzyme-linked reagent.
The subject of series [5] is Mel-Ab. In words: Inhibition of melanogenesis in mouse Mel-Ab cells assessed as reduction of melanin production at 100 uM after 4 days by ELISA reader. The series is classed as functional, cell-based.
Series [6] is described as follows: Antioxidant activity against linoleic acid lipid peroxidation at 90 uM after 48 hrs by ferric thiocyanate method. The series is classed as functional.

Activity calls are given as the source filed them. The calls are words filed in the database; no cut-off is given here.

`O=C(/C=C/c1ccc(O)c(O)c1)N[C@H](Cc1ccccc1)C(=O)NO`: the Activity in series [1] amounted to 47.6%.

Take `O=C(/C=C/c1ccc(O)c(O)c1)NC(Cc1ccccc1)C(=O)NO` (stereo not drawn): the inhibition entry in series [2] is “Active”.

Regarding `O=C(/C=C/c1ccc(O)c(O)c1)N[C@H](C(=O)NO)c1ccccc1`, the Activity in series [1] was determined as 56.2%.

Consider `O=C(/C=C/c1ccc(O)c(O)c1)N[C@@H](Cc1ccccc1)C(=O)NO`, for which, in series [1], the Activity came out at 40.9%.

As for `CC(C)C[C@H](NC(=O)/C=C/c1ccc(O)c(O)c1)C(=O)NO`, in series [1], the Activity is 51.1%. In series [2], the inhibition entry was “Active”.

`O=C(NO)[C@@H]1CCCN1C(=O)/C=C/c1ccc(O)c(O)c1`: the Activity in series [1] was 77.2%; in series [4] it was “Non-toxic”. Also, the result in series [3] and in series [6] was Active. Moreover, the inhibition result in series [2] and in series [5] was “Active” each time.

Take `O=C(O)[C@@H]1CCCN1C(=O)/C=C/c1ccc(O)c(O)c1`: the Activity in series [1] was 20%. For the same molecule, the outcome in series [3] and in series [6] was Active.

In the case of `O=C(O)/C=C/c1ccc(O)c(O)c1`, the Activity in series [1] stood at 52.4%. In addition, the inhibition entry in series [2] is “inactive”.

Turning to `O=C(/C=C/c1ccc(O)c(O)c1)NCC(=O)NO`, the Activity in series [1] came to 39.4%. Also, the inhibition entry in series [2] was “Active”.

For `C[C@H](NC(=O)/C=C/c1ccc(O)c(O)c1)C(=O)NO`, in series [1], the Activity stood at 40.7%. Moreover, in series [2], the inhibition entry is “Active”.

`O=C(/C=C/c1ccc(O)c(O)c1)NCCC(=O)NO`: the Activity in series [1] was 42.2%. For the same molecule, the inhibition result in series [2] is “Active”.
